This passage reports Ki results from patent publication US8436159B2, “Glyphosate resistant class I 5-endolpyruvylshikimate-3-phosphate synthase (EPSPS)” (Monsanto Technology LLC, priority 2003, dated 2013).

A word on the Ki: it is the dissociation constant of the complex between target and ligand, obtained from inhibition or displacement.

Changes are numbered by the printed parent chain.

The target in test [1] is T1, maize (Zea mays) class I EPSPS variant TIPT (T102I, P106T), pMON58452, ZmTIPT SEQ ID NO:38 (Zea mays, UniProt O24566, P106T/T102I).
T1 construct: pMON58452
T1 sequence (O24566 1-444 T102I/P106T): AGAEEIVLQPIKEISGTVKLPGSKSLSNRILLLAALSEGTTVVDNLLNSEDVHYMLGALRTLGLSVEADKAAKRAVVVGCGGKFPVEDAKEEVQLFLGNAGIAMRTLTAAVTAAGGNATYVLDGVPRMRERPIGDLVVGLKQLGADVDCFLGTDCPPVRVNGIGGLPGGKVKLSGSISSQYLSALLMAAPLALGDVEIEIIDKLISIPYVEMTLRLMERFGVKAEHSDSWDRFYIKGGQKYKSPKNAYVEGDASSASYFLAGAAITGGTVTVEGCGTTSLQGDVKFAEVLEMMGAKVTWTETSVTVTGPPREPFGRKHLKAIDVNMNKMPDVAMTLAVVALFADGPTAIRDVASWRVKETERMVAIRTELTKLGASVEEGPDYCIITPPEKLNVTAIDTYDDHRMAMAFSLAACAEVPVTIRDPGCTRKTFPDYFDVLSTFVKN
Put plainly: EPSPS steady-state kinetics, TIPT variant. The format is biochemical. An excerpt:
(§1) The double variants of the present invention were made using pMON58452 (FIG. 5) as the template. This pMON58452 EPSPS gene template contains the maize EPSPS double variant T102I, P106T (TIPT) that was constructed by mutagenesis of pMON70467 with the mutagenesis primers mEmut-9-U and mEmut-10-L. The various mutagenesis primer sequences were designed and then were synthesized by Invitrogen Corp., Custom Primers and used in combination in a PCR to create the variant EPSPS coding sequences. The PCR was set up in a 50 μl reaction in the following manner: dH2O 38 μl; 2 mM dNTP 1 μL; 10× buffer 5 μL; pMON58452 1 μL (10 ng); primer-U 2 μL; primer-L 2 μL; pfu Turbo enzyme 1 μL. PCR was carried out on a MJ Research PTC-200 thermal cycler using the following program: Step 1—94° C. for 30 seconds; Step 2—94° C. for 30 seconds; Step 3—55° C. for 1 minute; Step 4—68° C. for 14 minute; Step 5—go to step 2, 16 times; Step 6—End. At the end of the PCR, 1 μl of the restriction enzyme DpnI was added to each 50 μl of PCR reaction and the mixture was incubated at 37° C. for 1 hour. […]

The target of test [2] is T2, maize (Zea mays) class I EPSPS variant TIPG (T102I, P106G), pMON42480 (Zea mays, UniProt O24566, P106G/T102I).
T2 construct: pMON42480
T2 sequence (O24566 1-444 T102I/P106G): T1 sequence (O24566 1-444 T102I/P106T) with T106G
Put plainly: EPSPS steady-state kinetics, TIPG variant. In kind it is biochemical.
From the text: as §1

As for `O=C(O)CNCP(=O)(O)O` [glyphosate, N-phosphonomethylglycine], the values for the inhibition constant (Ki) in test [1] and in test [2] were 101 ± 12.7 µM and 38.6 µM, respectively.
